Experimental data from patent publication US8247211B2, “Glycopeptide antibiotics” (American Cyanamid Company, priority 2001, dated 2012).
In brackets after ≈: the same amount, converted by molar mass.

Columns and labels:
[1] = test system: Staphylococcus aureus-SMITH (GC 4543); assay: Acute lethal infection in mice (ED50); type: in vivo; conditions: female CD-1 mice, intraperitoneal challenge, intravenous dose 30 min. after infection, 7 day survival ratios
Procedure, shortened: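 Lethal systemic infection model: female CD-1 mice, 20 ± 1-2 g, intraperitoneal challenge. Single intravenous treatment 30 min after infection; 7-day survival, pooled from 3 tests, gives ED50.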

[2] = Anatomic pathology (heart and kidney histopathology) in mice; type: in vivo, CD-1 mice; conditions: 20 mg/kg intravenously daily for 9 days, microscopic histopathology on day 10
Experimental: 20-day-old CD-1 mice were divided into a vehicle control group (5 mice) and a treatment group (5 mice). Samples of glycopeptide antibiotics were administered at 20 mg/kg intravenously daily for 9 days.
Samples of tissues from necropsied mice were formalin-fixed, paraffin-embedded, sectioned, stained with hematoxylin and eosin, and examined microscopically. Histopathologic findings were recorded. These findings were subjectively graded on a scale corresponding to slight, mild, moderate, marked and severe as compared to untreated controls.

[3] = test system: Staphylococcus sp.; assay: In vitro antibacterial evaluation: minimum inhibitory concentration (MIC), broth dilution method; type: cell-based; conditions: 18 hours at 35° C.
Procedure, shortened: (§1)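 NCCLS M7-A2 broth dilution with Mueller-Hinton II, testing 64-0.06 μg/mL antibiotic against 5×10^5 CFU/mL inocula. Test strains include recent methicillin-, penicillin- or vancomycin-resistant clinical isolates. MIC is the lowest concentration preventing growth.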

[4] = test system: Escherichia coli; assay: as above; type: cell-based; conditions: 18 hours at 35° C.
Procedure, shortened: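 MIC read as lowest drug level preventing visible growth. Organisms at 5×10^5 CFU/mL were exposed to a 64-0.06 μg/mL dilution series in Muller-Hinton II […] following NCCLS broth dilution standard M7-A2.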

[5] = test system: Enterococcus sp.; assay: as above; type: cell-based; conditions: 18 hours at 35° C.
Procedure, shortened: as §1

[6] = test system: Streptococcus sp.; assay: as above; type: cell-based; conditions: 18 hours at 35° C.
Procedure, shortened: as §1

[7] = broth dilution, inoculum 5×10^5 CFU/mL

Compound: CC(c1ccccc1)C1NC(=O)CNC(=O)C(CO)NC(=O)C(C(O)C2CN(Cc3ccc(C(=O)O)cc3)C(=N)N2C2OC(CO)C(O)C(O)C2O)NC(=O)C(C(O)C2CNC(=N)N2)NC(=O)C(Cc2ccc(OC3OC(CO)C(OC4OC(CO)C(O)C(O)C4O)C(O)C3O)cc2)NC1=O (stereo not drawn) [Example 69, Cyclo[glycyl-β-methylphenylalanyl-O-(4-O-hexopyranosylhexopyranosyl)tyrosyl-3-(2-iminoimidazolidin-4-yl)seryl-3-[1-(4-carboxybenzyl)-2-imino-3-hexopyranosylimidazolidin-4-yl]-serylseryl]]
- median effective dose (ED50), Staphylococcus aureus-SMITH (GC 4543) [1]: >8
- Anatomical Pathology (Day 10), Heart [2]: 0
- Anatomical Pathology (Day 10), Kidney [2]: 0

Compound: CCCCCCCN1CC(C(O)C2NC(=O)C(C(O)C3CNC(=N)N3)NC(=O)C(Cc3ccc(OC4OC(CO)C(OC5OC(CO)C(O)C(O)C5O)C(O)C4O)cc3)NC(=O)C(C(C)c3ccccc3)NC(=O)CNC(=O)C(CO)NC2=O)N(C2OC(CO)C(O)C(O)C2O)C1=N (stereo not drawn) [Example 71, Cyclo[glycyl-β-methylphenylalanyl-O-(4-O-hexopyranosylhexopyranosyl]tyrosyl-3-(2-iminoimidazolidin-4-yl)seryl-3-[1-heptyl-3-hexopyranosyl-2-iminoimidazolidin-4-yl]serylseryl]]
- median effective dose (ED50), Staphylococcus aureus-SMITH (GC 4543) [1]: >8
- Anatomical Pathology (Day 10), Heart [2]: 0
- Anatomical Pathology (Day 10), Kidney [2]: 0

Compound: CN=C1N(C)CC(C(O)C2NC(=O)C(Cc3ccc(OC4OC(CO)C(OC5OC6COC7(OC6C(O)C5O)C5CC6CC(C5)CC7C6)C(O)C4O)cc3)NC(=O)C(C(C)c3ccccc3)NC(=O)CNC(=O)C(CO)NC(=O)C(C(O)C3CN(C)C(=NC)N3C3OC(CO)C(O)C(O)C3O)NC2=O)N1C (stereo not shown) [Example 81]
- median effective dose (ED50), Staphylococcus aureus-SMITH (GC 4543) [1]: >8
- Anatomical Pathology (Day 10), Heart [2]: 0
- Anatomical Pathology (Day 10), Kidney [2]: 0
- MIC Coagulase Negative Staphylococcus (GC 4547) ([3]; broth dilution): >128 µg/mL
- MIC Coagulase Negative Staphylococcus (GC 4548) ([3]; broth dilution): >128 µg/mL
- MIC Coagulase Negative Staphylococcus (GC 4549) ([3]; broth dilution): >128 µg/mL
- MIC Coagulase Negative Staphylococcus (GC 4551) ([3]; broth dilution): >128 µg/mL
- MIC Coagulase Negative Staphylococcus (GC 6257) ([3]; broth dilution): >128 µg/mL
- MIC Staphylococcus aureus (ATCC 29213) ([3]; broth dilution): >128 µg/mL
- MIC Staphylococcus aureus (GC 1131) ([3]; broth dilution): >128 µg/mL
- MIC Staphylococcus aureus (GC 3051) ([3]; broth dilution): >128 µg/mL
- MIC Staphylococcus aureus (GC 3053) ([3]; broth dilution): >128 µg/mL
- MIC Staphylococcus aureus (GC 4541) ([3]; broth dilution): >128 µg/mL
- MIC Staphylococcus aureus (GC 4542) ([3]; broth dilution): >128 µg/mL
- MIC Staphylococcus aureus (GC 4544) ([3]; broth dilution): >128 µg/mL
- MIC Staphylococcus aureus (GC 4545) ([3]; broth dilution): >128 µg/mL
- MIC Staphylococcus aureus SMITH (GC 4543) ([3]; broth dilution): >128 µg/mL

Compound: CN=C1N(C)CC(C(O)C2NC(=O)C(Cc3ccc(OC4OC(CO)C(OC5OC(CO)C(O)C(O)C5O)C(O)C4O)cc3)NC(=O)C(C(C)c3ccccc3)NC(=O)CNC(=O)C(CO)NC(=O)C(C(O)C3CN(C)C(=NC)N3C3OC(CO)C(O)C(O)C3O)NC2=O)N1C (stereo not drawn) [Example 64, Cyclo[glycyl-β-methylphenylalanyl-O-(4-O-hexopyranosylhexopyranosyl)tyrosyl-3-(1,3-dimethyl-2-(methylimino)imidazolidin-4-yl)seryl-3-[3-hexopyranosyl-1-methyl-2-(methylimino)imidazolidin-4-yl]-serylseryl]]
- median effective dose (ED50), Staphylococcus aureus-SMITH (GC 4543) [1]: >8
- Anatomical Pathology (Day 10), Heart [2]: 0
- Anatomical Pathology (Day 10), Kidney [2]: 0

Compound: CN=C1N(C)CC(CC2NC(=O)C(Cc3ccc(OC4OC(CO)C(OC5OC(CO)C(O)C(O)C5O)C(O)C4O)cc3)NC(=O)C(C(C)c3ccccc3)NC(=O)CNC(=O)C(CO)NC(=O)C(CC3CN(C)C(=NC)N3C3OC(CO)C(O)C(O)C3O)NC2=O)N1C (stereo not shown) [Example 74]
- median effective dose (ED50), Staphylococcus aureus-SMITH (GC 4543) [1]: >8
- Anatomical Pathology (Day 10), Heart [2]: 0
- Anatomical Pathology (Day 10), Kidney [2]: 0

Compound: CC(c1ccccc1)C1NC(=O)CNC(=O)C(CO)NC(=O)C(C(O)C2CNC(=N)N2C2OC(CO)C(O)C(O)C2O)NC(=O)C(C(O)C2CNC(=N)N2)NC(=O)C(Cc2ccc(OC3OC(CO)C(OC4OC(CO)C(OCc5ccc(OCc6ccccc6)cc5)C(O)C4O)C(O)C3O)cc2)NC1=O (stereo not drawn) [Example 231a, Cyclo[glycyl-β-methylphenylalanyl-O-[4-O-[4-O-[4-(phenylmethoxy)benzyl]hexopyranosyl]-hexopyranosyl]tyrosyl-3-(2-iminoimidazolidin-4-yl)seryl-3-(3-hexopyranosyl-2-iminoimidazolidin-4-yl)serylseryl]]
- median effective dose (ED50), Staphylococcus aureus-SMITH (GC 4543) [1]: 0.06 mg/kg
- MIC Escherichia coli (GC 4559) ([4]; Escherichia coli (GC 4559)): 32 µg/mL (≈ 21.5 µM)
- MIC Escherichia coli (GC 4560) ([4]; Escherichia coli (GC 4560)): 0.5 to 2 µg/mL
- MIC Coagulase Negative Staphylococcus (GC 4547) ([3]; Coagulase Negative Staphylococcus (GC 4547)): 1 µg/mL (≈ 0.67 µM)
- MIC Coagulase Negative Staphylococcus (GC 4551) ([3]; Coagulase Negative Staphylococcus (GC 4551)): 0.5 µg/mL (≈ 0.335 µM)
- MIC Coagulase Negative Staphylococcus (GC 6257) ([3]; Coagulase Negative Staphylococcus (GC 6257)): 0.5 µg/mL (≈ 0.335 µM)
- MIC Staphylococcus aureus (ATCC 29213) ([3]; Staphylococcus aureus (ATCC 29213)): 1 to 2 µg/mL
- MIC Staphylococcus aureus (GC 1131) ([3]; Staphylococcus aureus (GC 1131)): 1 to 2 µg/mL
- MIC Staphylococcus aureus (GC 3051) ([3]; Staphylococcus aureus (GC 3051)): 1 µg/mL (≈ 0.67 µM)
- MIC Staphylococcus aureus (GC 3053) ([3]; Staphylococcus aureus (GC 3053)): 1 to 2 µg/mL
- MIC Staphylococcus aureus (GC 4541) ([3]; Staphylococcus aureus (GC 4541)): 1 to 2 µg/mL
- MIC Staphylococcus aureus (GC 4542) ([3]; Staphylococcus aureus (GC 4542)): 0.5 to 1 µg/mL
- MIC Staphylococcus aureus (GC 4544) ([3]; Staphylococcus aureus (GC 4544)): 2 to 4 µg/mL
- MIC Staphylococcus aureus (GC 4545) ([3]; Staphylococcus aureus (GC 4545)): 1 to 2 µg/mL
- MIC Staphylococcus aureus-SMITH (GC 4543) ([3]; Staphylococcus aureus-SMITH (GC 4543)): 1 µg/mL (≈ 0.67 µM)
- MIC Staphylococcus haemolyticus (GC 4546) ([3]; Staphylococcus haemolyticus (GC 4546)): 1 µg/mL (≈ 0.67 µM)
- MIC Enterococcus avium (GC 4558) ([5]; Enterococcus avium (GC 4558)): 2 µg/mL (≈ 1.34 µM)
- MIC Enterococcus faecalis (ATCC 29212) ([5]; Enterococcus faecalis (ATCC 29212)): 2 µg/mL (≈ 1.34 µM)
- MIC Enterococcus faecalis (GC 2242) ([5]; Enterococcus faecalis (GC 2242)): 2 to 4 µg/mL
- MIC Enterococcus faecalis (GC 2691) ([5]; Enterococcus faecalis (GC 2691)): 2 µg/mL (≈ 1.34 µM)
- MIC Enterococcus faecalis (GC 3059) ([5]; Enterococcus faecalis (GC 3059)): 1 to 2 µg/mL
- MIC Enterococcus faecalis (GC 4552) ([5]; Enterococcus faecalis (GC 4552)): 4 µg/mL (≈ 2.68 µM)
- MIC Enterococcus faecalis (GC 4553) ([5]; Enterococcus faecalis (GC 4553)): 4 µg/mL (≈ 2.68 µM)
- MIC Enterococcus faecalis (GC 4554) ([5]; Enterococcus faecalis (GC 4554)): 4 µg/mL (≈ 2.68 µM)
- MIC Enterococcus faecalis (GC 6189) ([5]; Enterococcus faecalis (GC 6189)): 1 to 2 µg/mL
- MIC Enterococcus faecium (GC 2243) ([5]; Enterococcus faecium (GC 2243)): 2 µg/mL (≈ 1.34 µM)
- MIC Enterococcus faecium (GC 4556) ([5]; Enterococcus faecium (GC 4556)): 2 to 4 µg/mL
- MIC Enterococcus faecium (GC 4557) ([5]; Enterococcus faecium (GC 4557)): 2 µg/mL (≈ 1.34 µM)
- MIC Enterococcus avium (GC 4558) [5, 7]: 2 µg/mL (≈ 1.34 µM)
- MIC Enterococcus faecalis (ATCC 29212) [5, 7]: 2 µg/mL (≈ 1.34 µM)
- MIC Enterococcus faecalis (GC 2242) [5, 7]: 2 to 4 µg/mL
- MIC Enterococcus faecalis (GC 2691) [5, 7]: 2 µg/mL (≈ 1.34 µM)
- MIC Enterococcus faecalis (GC 3059) [5, 7]: 1 to 2 µg/mL
- MIC Enterococcus faecalis (GC 4552) [5, 7]: 4 µg/mL (≈ 2.68 µM)
- MIC Enterococcus faecalis (GC 4553) [5, 7]: 4 µg/mL (≈ 2.68 µM)
- MIC Enterococcus faecalis (GC 4554) [5, 7]: 4 µg/mL (≈ 2.68 µM)
- MIC Enterococcus faecalis (GC 6189) [5, 7]: 1 to 2 µg/mL
- MIC Enterococcus faecium (GC 2243) [5, 7]: 2 µg/mL (≈ 1.34 µM)
- MIC Enterococcus faecium (GC 4556) [5, 7]: 2 to 4 µg/mL
- MIC Enterococcus faecium (GC 4557) [5, 7]: 2 µg/mL (≈ 1.34 µM)
- MIC Streptococcus agalactiae (GC 4564) ([6]; Streptococcus agalactiae (GC 4564)): <0.06 µg/mL
- MIC Streptococcus pneumoniae (ATCC 6301) ([6]; Streptococcus pneumoniae (ATCC 6301)): <0.06 µg/mL
- MIC Streptococcus pneumoniae (GC 1894) ([6]; Streptococcus pneumoniae (GC 1894)): <0.06 µg/mL
- MIC Streptococcus pneumoniae (GC 4565) ([6]; Streptococcus pneumoniae (GC 4565)): <0.06 µg/mL
- MIC Streptococcus pyogenes (GC 4563) ([6]; Streptococcus pyogenes (GC 4563)): <0.06 µg/mL
- MIC Streptococcus agalactiae (GC 4564) [6, 7]: <0.06 µg/mL
- MIC Streptococcus pneumoniae (ATCC 6301) [6, 7]: <0.06 µg/mL
- MIC Streptococcus pneumoniae (GC 1894) [6, 7]: <0.06 µg/mL
- MIC Streptococcus pneumoniae (GC 4565) [6, 7]: <0.06 µg/mL
- MIC Streptococcus pyogenes (GC 4563) [6, 7]: <0.06 µg/mL
